Measured values from article PMC6704710, “Preclinical evaluation of 3D185, a novel potent inhibitor of FGFR1/2/3 and CSF-1R, in FGFR-dependent and macrophage-dominant cancer models” (Journal of Experimental & Clinical Cancer Research : CR, 2019).

Legend:
Assay in all cases: Eurofins kinase panel
Type in all cases: biochemical
Settings in all cases: read-out: Inhibition rate (%)
MARK3(h) = molecular target: T1, MARK3(h) (Homo sapiens, UniProt P27448)
T1 construct: purchased Eurofins (KinaseProfiler)
Protocol: (§1) Active FGFR1–4, VEGFR1, KDR, VEGFR3, PDGFRα and PDGFRβ proteins were purchased from Eurofins (Fremont, United States), and kinase activity was assessed using ELISA, as previously reported. […]. Increasing concentrations of ATP were diluted for the kinase reaction in the ATP competition assay. CSF-1R kinase activity was analyzed using the Z’-LYTE™ Kinase Assay Kit (Thermo Fisher, United States). The assay formats are described in the SelectScreen Kinase Profiling Service Zlyte protocol. IC50 values were calculated by dose-response curve fitting using Prism (Graph Pad).

TSSK2(h) = molecular target: T2, TSSK2(h) (Homo sapiens, UniProt Q96PF2)
T2 construct: purchased Eurofins (KinaseProfiler)
T2 sequence (Q96PF2 1-358): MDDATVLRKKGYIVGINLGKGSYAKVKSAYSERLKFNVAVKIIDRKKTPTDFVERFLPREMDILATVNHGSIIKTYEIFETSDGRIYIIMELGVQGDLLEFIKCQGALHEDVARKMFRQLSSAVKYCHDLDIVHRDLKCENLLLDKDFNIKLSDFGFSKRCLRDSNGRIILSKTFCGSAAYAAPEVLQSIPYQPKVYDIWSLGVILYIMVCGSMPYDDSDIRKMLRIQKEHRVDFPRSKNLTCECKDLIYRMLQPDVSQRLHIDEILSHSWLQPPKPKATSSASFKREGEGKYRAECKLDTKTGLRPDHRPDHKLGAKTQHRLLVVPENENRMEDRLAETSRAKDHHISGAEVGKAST
Protocol: as §1

SGK(h) = molecular target: T3, SGK(h) (Homo sapiens, UniProt O00141)
T3 construct: purchased Eurofins (KinaseProfiler)
T3 sequence (O00141 1-431): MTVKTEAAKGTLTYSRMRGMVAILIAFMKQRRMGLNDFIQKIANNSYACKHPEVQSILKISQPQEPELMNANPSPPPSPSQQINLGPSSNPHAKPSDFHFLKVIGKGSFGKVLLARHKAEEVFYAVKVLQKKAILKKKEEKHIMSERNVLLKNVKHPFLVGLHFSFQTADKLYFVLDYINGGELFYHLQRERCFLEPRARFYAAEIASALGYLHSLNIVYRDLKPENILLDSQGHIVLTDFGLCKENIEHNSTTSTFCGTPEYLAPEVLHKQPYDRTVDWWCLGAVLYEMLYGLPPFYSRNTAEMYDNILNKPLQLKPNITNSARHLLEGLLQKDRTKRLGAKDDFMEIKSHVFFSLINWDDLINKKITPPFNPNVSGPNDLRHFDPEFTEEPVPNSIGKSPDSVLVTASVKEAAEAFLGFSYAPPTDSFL
Protocol: as §1

Pyk2(h) = molecular target: T4, Pyk2(h) (Homo sapiens, UniProt Q14289)
T4 construct: purchased Eurofins (KinaseProfiler)
Protocol: as §1

CK1γ2(h) = molecular target: T5, CK1γ2(h) (Homo sapiens, UniProt P78368)
T5 construct: purchased Eurofins (KinaseProfiler)
Protocol: as §1

PKCβII(h) = molecular target: T6, PKCβII(h) (Homo sapiens, UniProt P05771)
T6 construct: purchased Eurofins (KinaseProfiler)
Protocol: as §1

DAPK2(h) = molecular target: T7, DAPK2(h) (Homo sapiens, UniProt Q9UIK4)
T7 construct: purchased Eurofins (KinaseProfiler)
Protocol: as §1

SRPK2(h) = molecular target: T8, SRPK2(h) (Homo sapiens, UniProt P78362)
T8 construct: purchased Eurofins (KinaseProfiler)
Protocol: as §1

JNK2α2(h) = molecular target: T9, JNK2α2(h) (Homo sapiens, UniProt P45984)
T9 construct: purchased Eurofins (KinaseProfiler)
Protocol: as §1

CK1δ(h) = molecular target: T10, CK1δ(h) (Homo sapiens, UniProt P48730)
T10 construct: purchased Eurofins (KinaseProfiler)
Protocol: as §1

[1] = molecular target: T11, PI3 Kinase (p110α(E545K)/p85α)(h) (Homo sapiens, UniProt P42336, E545K)
T11 construct: purchased Eurofins (KinaseProfiler)
Protocol: as §1

DCAMKL2(h) = molecular target: T12, DCAMKL2(h) (Homo sapiens, UniProt Q8N568)
T12 construct: purchased Eurofins (KinaseProfiler)
T12 sequence (Q8N568 1-766): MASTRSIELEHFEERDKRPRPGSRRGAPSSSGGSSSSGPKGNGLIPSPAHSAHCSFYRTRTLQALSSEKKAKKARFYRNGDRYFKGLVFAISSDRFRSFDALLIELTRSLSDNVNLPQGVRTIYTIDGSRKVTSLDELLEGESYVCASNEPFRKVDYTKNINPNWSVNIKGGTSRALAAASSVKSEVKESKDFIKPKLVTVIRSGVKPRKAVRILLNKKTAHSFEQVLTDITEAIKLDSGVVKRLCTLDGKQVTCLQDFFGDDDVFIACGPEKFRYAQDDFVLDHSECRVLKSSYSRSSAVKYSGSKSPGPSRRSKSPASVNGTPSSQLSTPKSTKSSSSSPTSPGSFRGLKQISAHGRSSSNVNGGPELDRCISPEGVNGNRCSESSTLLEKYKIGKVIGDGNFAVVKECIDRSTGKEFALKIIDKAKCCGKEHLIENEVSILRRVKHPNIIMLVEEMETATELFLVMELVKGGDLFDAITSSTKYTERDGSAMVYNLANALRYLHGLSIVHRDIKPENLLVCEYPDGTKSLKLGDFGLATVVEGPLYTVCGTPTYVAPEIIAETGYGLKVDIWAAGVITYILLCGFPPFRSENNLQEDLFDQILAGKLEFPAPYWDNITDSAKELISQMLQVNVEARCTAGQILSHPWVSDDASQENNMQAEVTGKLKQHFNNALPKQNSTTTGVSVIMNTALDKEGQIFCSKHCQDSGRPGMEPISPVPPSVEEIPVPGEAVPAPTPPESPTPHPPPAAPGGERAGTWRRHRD
Protocol: as §1

T9 sequence (P45984 whole entry): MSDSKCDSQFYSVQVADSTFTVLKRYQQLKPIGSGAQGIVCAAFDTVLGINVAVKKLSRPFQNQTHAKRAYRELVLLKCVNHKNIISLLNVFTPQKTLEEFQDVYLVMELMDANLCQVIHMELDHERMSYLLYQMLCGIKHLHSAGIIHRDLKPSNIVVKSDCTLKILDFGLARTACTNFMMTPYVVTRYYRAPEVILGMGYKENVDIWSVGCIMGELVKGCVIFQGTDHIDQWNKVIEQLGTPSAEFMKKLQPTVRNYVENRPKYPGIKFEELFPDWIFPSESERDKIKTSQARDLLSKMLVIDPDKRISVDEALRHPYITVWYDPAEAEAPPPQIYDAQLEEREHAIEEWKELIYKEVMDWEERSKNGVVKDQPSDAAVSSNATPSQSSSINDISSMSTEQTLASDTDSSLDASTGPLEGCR
T7 sequence (Q9UIK4 whole entry): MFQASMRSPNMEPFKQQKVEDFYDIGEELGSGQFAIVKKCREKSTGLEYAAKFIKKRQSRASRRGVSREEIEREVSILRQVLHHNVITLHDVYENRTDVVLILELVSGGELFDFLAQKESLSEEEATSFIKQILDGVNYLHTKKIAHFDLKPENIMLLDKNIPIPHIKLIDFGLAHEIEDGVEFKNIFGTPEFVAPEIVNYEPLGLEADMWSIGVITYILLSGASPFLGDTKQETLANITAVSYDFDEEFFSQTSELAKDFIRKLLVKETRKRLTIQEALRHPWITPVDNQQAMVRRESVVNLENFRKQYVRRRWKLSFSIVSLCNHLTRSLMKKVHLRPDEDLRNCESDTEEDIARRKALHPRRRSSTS
T10 sequence (P48730 whole entry): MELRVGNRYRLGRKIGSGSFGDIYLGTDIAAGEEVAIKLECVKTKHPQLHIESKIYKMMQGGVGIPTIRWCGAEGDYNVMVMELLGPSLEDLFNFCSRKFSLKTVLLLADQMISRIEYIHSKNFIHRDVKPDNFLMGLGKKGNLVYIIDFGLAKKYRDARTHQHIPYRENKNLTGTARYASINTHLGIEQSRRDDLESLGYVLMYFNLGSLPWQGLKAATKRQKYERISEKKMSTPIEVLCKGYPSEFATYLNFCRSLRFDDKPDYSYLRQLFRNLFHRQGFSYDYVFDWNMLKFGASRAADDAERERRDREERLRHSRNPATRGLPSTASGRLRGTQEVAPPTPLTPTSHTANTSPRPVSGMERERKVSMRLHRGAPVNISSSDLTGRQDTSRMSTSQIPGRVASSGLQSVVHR
T8 sequence (P78362 whole entry): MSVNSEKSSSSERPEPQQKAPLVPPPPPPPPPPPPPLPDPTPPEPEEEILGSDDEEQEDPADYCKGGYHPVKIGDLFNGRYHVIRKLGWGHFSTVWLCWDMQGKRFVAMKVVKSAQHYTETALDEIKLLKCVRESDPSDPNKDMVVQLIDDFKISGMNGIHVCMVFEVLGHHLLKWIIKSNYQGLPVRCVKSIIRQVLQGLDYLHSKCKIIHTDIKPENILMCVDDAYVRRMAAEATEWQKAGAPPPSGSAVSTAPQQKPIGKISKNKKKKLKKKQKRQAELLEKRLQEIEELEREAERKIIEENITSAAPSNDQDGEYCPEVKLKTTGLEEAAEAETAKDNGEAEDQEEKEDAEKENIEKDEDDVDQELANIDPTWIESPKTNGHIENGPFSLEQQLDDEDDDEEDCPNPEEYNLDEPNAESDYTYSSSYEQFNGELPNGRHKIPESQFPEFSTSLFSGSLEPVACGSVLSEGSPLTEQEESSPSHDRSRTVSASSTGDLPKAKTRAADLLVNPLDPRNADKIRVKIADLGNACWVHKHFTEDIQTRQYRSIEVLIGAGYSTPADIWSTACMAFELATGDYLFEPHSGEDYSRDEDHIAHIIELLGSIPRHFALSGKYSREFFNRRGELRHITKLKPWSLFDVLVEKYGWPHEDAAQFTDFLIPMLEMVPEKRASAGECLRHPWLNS
T5 sequence (P78368 whole entry): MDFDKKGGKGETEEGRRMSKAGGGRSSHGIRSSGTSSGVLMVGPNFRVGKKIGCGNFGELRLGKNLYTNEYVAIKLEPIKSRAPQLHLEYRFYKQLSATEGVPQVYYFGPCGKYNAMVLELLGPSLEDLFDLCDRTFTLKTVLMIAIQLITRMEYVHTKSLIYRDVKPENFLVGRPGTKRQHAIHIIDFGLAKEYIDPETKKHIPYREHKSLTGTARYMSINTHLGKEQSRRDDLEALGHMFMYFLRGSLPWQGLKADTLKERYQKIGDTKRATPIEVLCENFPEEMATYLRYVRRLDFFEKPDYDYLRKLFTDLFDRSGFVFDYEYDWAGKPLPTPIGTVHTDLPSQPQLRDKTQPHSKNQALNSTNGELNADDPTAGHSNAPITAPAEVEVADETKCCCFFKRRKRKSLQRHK
T6 sequence (P05771 1-673 isoform P05771-2): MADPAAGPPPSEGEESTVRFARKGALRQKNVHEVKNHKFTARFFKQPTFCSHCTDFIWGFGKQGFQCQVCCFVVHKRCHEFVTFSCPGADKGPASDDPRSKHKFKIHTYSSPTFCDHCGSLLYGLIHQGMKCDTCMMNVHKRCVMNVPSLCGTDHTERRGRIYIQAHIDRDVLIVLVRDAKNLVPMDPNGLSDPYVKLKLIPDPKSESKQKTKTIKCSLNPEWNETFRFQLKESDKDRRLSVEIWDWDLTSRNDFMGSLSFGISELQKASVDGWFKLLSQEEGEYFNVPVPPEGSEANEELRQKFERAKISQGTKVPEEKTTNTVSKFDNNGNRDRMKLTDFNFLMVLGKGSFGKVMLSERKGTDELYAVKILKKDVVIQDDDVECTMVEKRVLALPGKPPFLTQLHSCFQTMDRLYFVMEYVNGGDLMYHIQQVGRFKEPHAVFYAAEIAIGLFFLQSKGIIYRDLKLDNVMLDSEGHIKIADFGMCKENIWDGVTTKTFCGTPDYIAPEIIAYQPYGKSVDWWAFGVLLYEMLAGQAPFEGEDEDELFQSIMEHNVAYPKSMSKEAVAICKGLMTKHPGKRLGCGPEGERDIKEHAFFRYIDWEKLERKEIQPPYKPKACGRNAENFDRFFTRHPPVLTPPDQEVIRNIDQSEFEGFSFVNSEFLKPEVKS
T1 sequence (P27448 whole entry): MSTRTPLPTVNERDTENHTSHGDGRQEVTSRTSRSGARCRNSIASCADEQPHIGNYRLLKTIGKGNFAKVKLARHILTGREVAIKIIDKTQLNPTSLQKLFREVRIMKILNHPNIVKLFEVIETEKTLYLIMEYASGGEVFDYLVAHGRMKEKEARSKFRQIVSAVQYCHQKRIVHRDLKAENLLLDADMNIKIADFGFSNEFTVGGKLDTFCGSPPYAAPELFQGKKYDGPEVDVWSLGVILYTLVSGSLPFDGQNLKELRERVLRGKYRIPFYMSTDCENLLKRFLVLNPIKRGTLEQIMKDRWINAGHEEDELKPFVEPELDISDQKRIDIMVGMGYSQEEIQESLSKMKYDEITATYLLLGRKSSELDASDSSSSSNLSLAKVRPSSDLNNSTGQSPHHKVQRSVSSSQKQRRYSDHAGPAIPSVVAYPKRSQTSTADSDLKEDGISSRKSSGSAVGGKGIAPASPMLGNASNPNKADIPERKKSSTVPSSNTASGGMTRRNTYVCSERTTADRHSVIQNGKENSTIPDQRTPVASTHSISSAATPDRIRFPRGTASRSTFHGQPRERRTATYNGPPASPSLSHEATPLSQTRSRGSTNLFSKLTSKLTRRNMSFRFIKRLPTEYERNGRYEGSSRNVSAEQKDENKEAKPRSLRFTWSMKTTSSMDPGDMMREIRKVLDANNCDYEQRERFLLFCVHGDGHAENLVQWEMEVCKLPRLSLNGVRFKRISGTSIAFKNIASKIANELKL
T4 sequence (Q14289 whole entry): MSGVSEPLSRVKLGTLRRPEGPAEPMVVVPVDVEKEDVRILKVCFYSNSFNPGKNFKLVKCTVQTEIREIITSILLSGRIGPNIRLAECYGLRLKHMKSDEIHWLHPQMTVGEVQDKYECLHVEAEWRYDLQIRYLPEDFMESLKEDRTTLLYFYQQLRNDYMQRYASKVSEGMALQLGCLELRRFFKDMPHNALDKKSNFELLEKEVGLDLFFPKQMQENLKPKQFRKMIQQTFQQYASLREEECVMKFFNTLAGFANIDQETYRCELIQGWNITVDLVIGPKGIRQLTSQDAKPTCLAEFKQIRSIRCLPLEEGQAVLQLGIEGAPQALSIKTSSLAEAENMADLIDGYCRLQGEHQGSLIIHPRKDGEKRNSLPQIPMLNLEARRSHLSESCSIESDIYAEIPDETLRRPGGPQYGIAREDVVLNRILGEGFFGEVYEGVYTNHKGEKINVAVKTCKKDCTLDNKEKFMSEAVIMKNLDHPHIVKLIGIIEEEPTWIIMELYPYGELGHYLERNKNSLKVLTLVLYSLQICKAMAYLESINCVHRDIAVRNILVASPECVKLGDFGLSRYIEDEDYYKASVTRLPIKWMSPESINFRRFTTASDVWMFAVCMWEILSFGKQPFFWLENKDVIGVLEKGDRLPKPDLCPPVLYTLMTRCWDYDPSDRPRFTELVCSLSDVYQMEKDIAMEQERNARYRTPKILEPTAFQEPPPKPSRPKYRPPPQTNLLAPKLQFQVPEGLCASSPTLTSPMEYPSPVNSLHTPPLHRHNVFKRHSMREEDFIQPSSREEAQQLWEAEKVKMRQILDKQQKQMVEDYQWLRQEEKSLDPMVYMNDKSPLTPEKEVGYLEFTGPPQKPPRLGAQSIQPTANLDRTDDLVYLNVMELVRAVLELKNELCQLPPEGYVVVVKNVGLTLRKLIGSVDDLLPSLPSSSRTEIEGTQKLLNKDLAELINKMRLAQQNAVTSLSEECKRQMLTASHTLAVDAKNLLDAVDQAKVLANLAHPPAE

COc1cc(OC)c(Cl)c(-c2ccc3c(NC(=O)c4ccc(N5CCNC(C)(C)C5)cc4)n[nH]c3n2)c1Cl [3D185]
inhibition at 0.01 µM (MARK3(h); 10 nM): 7% | inhibition at 0.1 µM (MARK3(h); 100 nM): -6% | inhibition at 1 µM (MARK3(h); 1000 nM): -4% | inhibition at 0.01 µM (TSSK2(h); 10 nM): 6% | inhibition at 0.1 µM (TSSK2(h); 100 nM): 5% | inhibition at 1 µM (TSSK2(h); 1000 nM): -4% | inhibition at 0.01 µM (SGK(h); 10 nM): -4% | inhibition at 0.1 µM (SGK(h); 100 nM): -13% | inhibition at 1 µM (SGK(h); 1000 nM): -7% | inhibition at 0.01 µM (Pyk2(h); 10 nM): 2% | inhibition at 0.1 µM (Pyk2(h); 100 nM): 24% | inhibition at 1 µM (Pyk2(h); 1000 nM): 71% | inhibition at 0.01 µM (CK1γ2(h); 10 nM): -9% | inhibition at 0.1 µM (CK1γ2(h); 100 nM): -8% | inhibition at 1 µM (CK1γ2(h); 1000 nM): -7% | inhibition at 0.01 µM (PKCβII(h); 10 nM): -12% | inhibition at 0.1 µM (PKCβII(h); 100 nM): -1% | inhibition at 1 µM (PKCβII(h); 1000 nM): -8% | inhibition at 0.01 µM (DAPK2(h); 10 nM): 1% | inhibition at 0.1 µM (DAPK2(h); 100 nM): -8% | inhibition at 1 µM (DAPK2(h); 1000 nM): 2% | inhibition at 0.01 µM (SRPK2(h); 10 nM): 2% | inhibition at 0.1 µM (SRPK2(h); 100 nM): 2% | inhibition at 1 µM (SRPK2(h); 1000 nM): -7% | inhibition at 0.01 µM (JNK2α2(h); 10 nM): 3% | inhibition at 0.1 µM (JNK2α2(h); 100 nM): 4% | inhibition at 1 µM (JNK2α2(h); 1000 nM): 1% | inhibition at 0.01 µM (CK1δ(h); 10 nM): -10% | inhibition at 0.1 µM (CK1δ(h); 100 nM): 0% | inhibition at 1 µM (CK1δ(h); 1000 nM): 6% | inhibition at 0.01 µM ([1]; 10 nM): -2% | inhibition at 0.1 µM ([1]; 100 nM): -2% | inhibition at 1 µM ([1]; 1000 nM): 2% | inhibition at 0.01 µM (DCAMKL2(h); 10 nM): 8% | inhibition at 0.1 µM (DCAMKL2(h); 100 nM): 18% | inhibition at 1 µM (DCAMKL2(h); 1000 nM): 28%
